Reference: the NIST ThermoML archive (doi:10.1016/j.jct.2006.11.003)
± gives the expanded uncertainty stated by the source.

Experiment: xn = mol fraction of the nth substance listed
Settings: 101 kPa, Liquid

Cc1ccc(C)cc1 [1,4-dimethylbenzene] + CN1CCCC1=O
Settings	mass density [kg/m3]
293.15 K, x1 = 0.0511	1023.02 ± 0.44
293.15 K, x1 = 0.1204	1010.11 ± 0.4
293.15 K, x1 = 0.1985	995.8 ± 0.39
293.15 K, x1 = 0.2451	987.37 ± 0.43
293.15 K, x1 = 0.2987	977.77 ± 0.48
293.15 K, x1 = 0.3458	969.44 ± 0.52
293.15 K, x1 = 0.4012	959.72 ± 0.57
293.15 K, x1 = 0.4781	946.42 ± 0.63
293.15 K, x1 = 0.5314	937.3 ± 0.68
293.15 K, x1 = 0.5984	925.99 ± 0.74
293.15 K, x1 = 0.6558	916.4 ± 0.78
293.15 K, x1 = 0.7154	906.57 ± 0.83
293.15 K, x1 = 0.7841	895.34 ± 0.89
293.15 K, x1 = 0.8512	884.52 ± 0.95
293.15 K, x1 = 0.9254	872.69 ± 1
293.15 K, x1 = 1	860.95 ± 1.1
303.15 K, x1 = 0.0645	1011.3 ± 0.4
303.15 K, x1 = 0.1151	1001.91 ± 0.37
303.15 K, x1 = 0.1814	989.76 ± 0.41
303.15 K, x1 = 0.2654	974.62 ± 0.48
303.15 K, x1 = 0.3214	964.66 ± 0.53
303.15 K, x1 = 0.3854	953.43 ± 0.59
303.15 K, x1 = 0.4515	941.97 ± 0.65
303.15 K, x1 = 0.5024	933.26 ± 0.69
303.15 K, x1 = 0.5685	922.06 ± 0.74
303.15 K, x1 = 0.6214	913.21 ± 0.79
303.15 K, x1 = 0.6754	904.26 ± 0.83
303.15 K, x1 = 0.7451	892.85 ± 0.89
303.15 K, x1 = 0.8114	882.12 ± 0.95
303.15 K, x1 = 0.8841	870.51 ± 1
303.15 K, x1 = 0.9514	859.89 ± 1.1
303.15 K, x1 = 1	852.3 ± 1.1
313.15 K, x1 = 0.0521	1004.87 ± 0.37
313.15 K, x1 = 0.1142	993.77 ± 0.38
313.15 K, x1 = 0.1721	983.53 ± 0.43
313.15 K, x1 = 0.2302	973.36 ± 0.48
313.15 K, x1 = 0.3065	960.16 ± 0.55
313.15 K, x1 = 0.3615	950.77 ± 0.59
313.15 K, x1 = 0.4115	942.31 ± 0.64
313.15 K, x1 = 0.4841	930.18 ± 0.7
313.15 K, x1 = 0.5547	918.53 ± 0.76
313.15 K, x1 = 0.6208	907.77 ± 0.81
313.15 K, x1 = 0.7055	894.15 ± 0.88
313.15 K, x1 = 0.7805	882.26 ± 0.94
313.15 K, x1 = 0.8372	873.36 ± 0.99
313.15 K, x1 = 0.8947	864.42 ± 1
313.15 K, x1 = 0.9539	855.29 ± 1.1
323.15 K, x1 = 0.0575	994.81 ± 0.37
323.15 K, x1 = 0.1247	982.32 ± 0.43
323.15 K, x1 = 0.2011	968.35 ± 0.5
323.15 K, x1 = 0.2784	954.42 ± 0.56
323.15 K, x1 = 0.338	943.85 ± 0.62
323.15 K, x1 = 0.4015	932.73 ± 0.67
323.15 K, x1 = 0.4697	920.97 ± 0.73
323.15 K, x1 = 0.5389	909.19 ± 0.79
323.15 K, x1 = 0.6003	898.9 ± 0.84
323.15 K, x1 = 0.6674	887.8 ± 0.89
323.15 K, x1 = 0.7245	878.46 ± 0.94
323.15 K, x1 = 0.7806	869.38 ± 0.99
323.15 K, x1 = 0.8341	860.82 ± 1
323.15 K, x1 = 0.8947	851.21 ± 1.1
323.15 K, x1 = 0.9481	842.83 ± 1.1
323.15 K, x1 = 1	834.76 ± 1.2
333.15 K, x1 = 0.0462	987.58 ± 0.4
333.15 K, x1 = 0.1025	977.11 ± 0.45
333.15 K, x1 = 0.1724	964.26 ± 0.51
333.15 K, x1 = 0.2354	952.85 ± 0.56
333.15 K, x1 = 0.2951	942.18 ± 0.62
333.15 K, x1 = 0.3658	929.72 ± 0.68
333.15 K, x1 = 0.4315	918.31 ± 0.73
333.15 K, x1 = 0.5007	906.49 ± 0.79
333.15 K, x1 = 0.5714	894.57 ± 0.85
333.15 K, x1 = 0.6378	883.55 ± 0.9
333.15 K, x1 = 0.7047	872.6 ± 0.96
333.15 K, x1 = 0.7533	864.73 ± 1
333.15 K, x1 = 0.8258	853.13 ± 1.1
333.15 K, x1 = 0.8846	843.83 ± 1.1
333.15 K, x1 = 0.9479	833.93 ± 1.2
333.15 K, x1 = 1	825.86 ± 1.2
343.15 K, x1 = 0.0675	974.69 ± 0.45
343.15 K, x1 = 0.1353	962.13 ± 0.51
343.15 K, x1 = 0.2024	949.85 ± 0.57
343.15 K, x1 = 0.2715	937.41 ± 0.63
343.15 K, x1 = 0.3376	925.68 ± 0.69
343.15 K, x1 = 0.4061	913.71 ± 0.75
343.15 K, x1 = 0.4719	902.38 ± 0.8
343.15 K, x1 = 0.5422	890.46 ± 0.86
343.15 K, x1 = 0.6103	879.09 ± 0.92
343.15 K, x1 = 0.6749	868.44 ± 0.97
343.15 K, x1 = 0.7405	857.78 ± 1
343.15 K, x1 = 0.8049	847.44 ± 1.1
343.15 K, x1 = 0.8674	837.54 ± 1.1
343.15 K, x1 = 0.9308	827.6 ± 1.2
343.15 K, x1 = 0.9788	820.15 ± 1.2
343.15 K, x1 = 1	816.87 ± 1.2
353.15 K, x1 = 0.0567	967.91 ± 0.48
353.15 K, x1 = 0.1134	957.31 ± 0.53
353.15 K, x1 = 0.1826	944.57 ± 0.59
353.15 K, x1 = 0.2527	931.85 ± 0.65
353.15 K, x1 = 0.3072	922.09 ± 0.7
353.15 K, x1 = 0.3857	908.27 ± 0.76
353.15 K, x1 = 0.4584	895.67 ± 0.83
353.15 K, x1 = 0.5036	887.95 ± 0.86
353.15 K, x1 = 0.5757	875.79 ± 0.92
353.15 K, x1 = 0.6382	865.4 ± 0.97
353.15 K, x1 = 0.7016	855.01 ± 1
353.15 K, x1 = 0.7613	845.35 ± 1.1
353.15 K, x1 = 0.8139	836.93 ± 1.1
353.15 K, x1 = 0.8846	825.75 ± 1.2
353.15 K, x1 = 0.9378	817.44 ± 1.2
353.15 K, x1 = 1	807.81 ± 1.3
